Like-named read-outs stand apart in the source and are kept apart here. Bridge positions count the residues as written; N and C are the ends. Square brackets hold non-standard residues; d marks the D form. Peptide text beside a SMILES is read from it. Hyp = O=C(O)[C@@H]1C[C@@H](O)CN1; Nle = CCCC[C@H](N)C(=O)O
Target: T1, bovine trypsin (Bos taurus, UniProt P00760)
T1 sequence (P00760 24-246): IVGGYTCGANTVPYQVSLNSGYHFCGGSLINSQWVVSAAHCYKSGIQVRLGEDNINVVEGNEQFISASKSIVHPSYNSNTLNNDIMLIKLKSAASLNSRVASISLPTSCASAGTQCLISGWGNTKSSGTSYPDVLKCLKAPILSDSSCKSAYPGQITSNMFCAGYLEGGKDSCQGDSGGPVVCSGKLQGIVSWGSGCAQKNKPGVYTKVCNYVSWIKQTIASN
Assay: Trypsin inhibitory activity of peptides (BApNA hydrolysis, OD405; IC50, Ki, residual activity)
Format: biochemical
In short: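 Trypsin (50 nM final) preincubated with peptides at 37 °C in 50 mM Tris-HCl pH 7.8, 20 mM CaCl2; BApNA added (1.22 mM final), 260 min at 37 °C, then OD405 read. Residual activity from enzyme-only and substrate-only controls; IC50 fitted and converted to Ki via Ki=IC50/(1+S/Km), Km measured separately for BApNA.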

[1] = trypsin 50 nM, BApNA 1.22 mM, read-out: IC50
[2] = Ki=IC50/(1+S/Km), Km 0.33 mM, read-out: Ki

Structure (SMILES)	Residual trypsin activity (peptide 0.000098 μM) [%]	Residual trypsin activity (peptide 0.00098 μM) [%]	Residual trypsin activity (peptide 0.0098 μM) [%]	Residual trypsin activity (peptide 0.0488 μM) [%]	Residual trypsin activity (peptide 0.098 μM) [%]	Residual trypsin activity (peptide 0.98 μM) [%]	Residual trypsin activity (peptide 9.76 μM) [%]	IC50 [1] [nM]	inhibitory activity against trypsin (in words)	Ki [2] [nM]	further results
CC[C@H](C)[C@@H]1NC(=O)[C@@H]2CCCN2C(=O)[C@@H]2CCCN2C(=O)[C@H]([C@@H](C)CC)NC(=O)[C@H](CO)NC(=O)[C@H](CCCCN)NC(=O)[C@H]([C@@H](C)O)NC(=O)[C@@H](NC(=O)[C@@H](N)CCCNC(=N)N)CSSC[C@@H](C(=O)N[C@@H](Cc2ccccc2)C(=O)O)NC1=O [BT45] (H-RCTKSIPPICF-OH; disulfide 2-10; C-terminus assumed)	99.3 ± 5.3	104.3 ± 6.0	100.7 ± 5.0	27.3 ± 5.5	6.3 ± 0.4	0.4 ± 0.0	0.0 ± 0.0	30			Residual trypsin activity (peptide 0.02439 μM): 67.4 ± 2.6%; Residual trypsin activity (peptide 0.0390 μM): 42.7 ± 2.9%; Residual trypsin activity (peptide 0.07317 μM): 10.8 ± 1.6%
CC[C@H](C)[C@@H]1NC(=O)[C@@H]2CCCN2C(=O)[C@@H]2CCCN2C(=O)[C@H]([C@@H](C)CC)NC(=O)[C@H](CO)NC(=O)[C@H](CCCCN)NC(=O)[C@H]([C@@H](C)O)NC(=O)[C@H](C)NC(=O)[C@H](CCCNC(=N)N)NC(=O)[C@@H]2C[C@@H](O)CN2C(=O)[C@@H](N)CSSC[C@@H](C(=O)N[C@@H](Cc2ccccc2)C(=O)O)NC1=O [BT46] (H-C[Hyp]RATKSIPPICF-OH; disulfide 1-12; C-terminus assumed)								70	excellent trypsin inhibitory activities	10	
CC[C@H](C)[C@@H]1NC(=O)[C@@H]2CCCN2C(=O)[C@@H]2CCCN2C(=O)[C@H]([C@@H](C)CC)NC(=O)[C@H](CO)NC(=O)[C@H](CCCCN)NC(=O)[C@H]([C@@H](C)O)NC(=O)[C@H](CO)NC(=O)[C@H](CCCNC(=N)N)NC(=O)CNC(=O)[C@@H](N)CSSC[C@@H](C(=O)N[C@@H](Cc2ccccc2)C(=O)O)NC1=O [BT47] (H-CGRSTKSIPPICF-OH; disulfide 1-12; C-terminus assumed)	103.0 ± 5.2	105.1 ± 3.6	107.9 ± 5.8	57.4 ± 1.1	5.6 ± 0.7	0.2 ± 0.0	0.0 ± 0.1	50	good inhibitory activities against trypsin	10	inhibitory activity against trypsin (in words) (listed as SEQ ID NO: 47): excellent trypsin inhibitory activities; Residual trypsin activity (peptide 0.0780 μM): 39.0 ± 3.8%; Residual trypsin activity (peptide 97.56 μM): 0.1 ± 0.0%
CC[C@H](C)[C@@H]1NC(=O)[C@@H]2CCCN2C(=O)[C@@H]2CCCN2C(=O)[C@H]([C@@H](C)CC)NC(=O)[C@H](CO)NC(=O)[C@H](CCCCN)NC(=O)[C@H]([C@@H](C)O)NC(=O)[C@H](CC(C)C)NC(=O)[C@H](CCCNC(=N)N)NC(=O)CNC(=O)[C@@H](N)CSSC[C@@H](C(=O)N[C@@H](Cc2ccccc2)C(=O)O)NC1=O [BT48] (H-CGRLTKSIPPICF-OH; disulfide 1-12; N-terminus and C-terminus assumed)										40	
CC[C@H](C)[C@@H]1NC(=O)[C@H](CCCNC(=N)N)NC(=O)CNC(=O)[C@@H](N)CSSC[C@@H](C(=O)N[C@@H](Cc2ccccc2)C(=O)O)NC(=O)[C@H]([C@@H](C)CC)NC(=O)[C@@H]2CCCN2C(=O)[C@@H]2CCCN2C(=O)[C@H]([C@@H](C)CC)NC(=O)[C@H](CO)NC(=O)[C@H](CCCCN)NC(=O)[C@H]([C@@H](C)O)NC1=O [BT49] (H-CGRITKSIPPICF-OH; disulfide 1-12; C-terminus assumed)									excellent trypsin inhibitory activities	110	
CCCC[C@@H]1NC(=O)[C@H](CCCNC(=N)N)NC(=O)CNC(=O)[C@@H](N)CSSC[C@@H](C(=O)N[C@@H](Cc2ccccc2)C(=O)O)NC(=O)[C@H]([C@@H](C)CC)NC(=O)[C@@H]2CCCN2C(=O)[C@@H]2CCCN2C(=O)[C@H]([C@@H](C)CC)NC(=O)[C@H](CO)NC(=O)[C@H](CCCCN)NC(=O)[C@H]([C@@H](C)O)NC1=O [BT50] (H-CGR[Nle]TKSIPPICF-OH; disulfide 1-12; C-terminus assumed)	106.1 ± 2.6	108.5 ± 1.0	105.0 ± 3.9	73.5 ± 1.6	22.6 ± 5.7	0.1 ± 0.0	0.0 ± 0.1	70	good inhibitory activities against trypsin	10	inhibitory activity against trypsin (in words) (listed as SEQ ID NO: 50): excellent trypsin inhibitory activities; Residual trypsin activity (peptide 0.0780 μM): 48.9 ± 1.8%; Residual trypsin activity (peptide 97.56 μM): 0.0 ± 0.1%
CC[C@H](C)[C@@H]1NC(=O)[C@@H]2CCCN2C(=O)[C@@H]2CCCN2C(=O)[C@H]([C@@H](C)CC)NC(=O)[C@H](CO)NC(=O)[C@H](CCCCN)NC(=O)[C@H]([C@@H](C)O)NC(=O)[C@H](C(C)C)NC(=O)[C@H](CCCNC(=N)N)NC(=O)CNC(=O)[C@@H](N)CSSC[C@@H](C(=O)N[C@@H](Cc2ccccc2)C(=O)O)NC1=O [BT51] (H-CGRVTKSIPPICF-OH; disulfide 1-12)									excellent trypsin inhibitory activities	90	
CC[C@H](C)[C@@H]1NC(=O)[C@@H]2CCCN2C(=O)[C@@H]2CCCN2C(=O)[C@H]([C@@H](C)CC)NC(=O)[C@H](CO)NC(=O)[C@H](CCCCN)NC(=O)[C@H]([C@@H](C)O)NC(=O)[C@H](Cc2ccccc2)NC(=O)[C@H](CCCNC(=N)N)NC(=O)CNC(=O)[C@@H](N)CSSC[C@@H](C(=O)N[C@@H](Cc2ccccc2)C(=O)O)NC1=O [BT52] (H-CGRFTKSIPPICF-OH; disulfide 1-12; N-terminus and C-terminus assumed)								130		30	
CC[C@H](C)[C@@H]1NC(=O)[C@@H]2CCCN2C(=O)[C@@H]2CCCN2C(=O)[C@H]([C@@H](C)CC)NC(=O)[C@H](CO)NC(=O)[C@H](CCCCN)NC(=O)[C@H]([C@@H](C)O)NC(=O)[C@H](Cc2ccc(O)cc2)NC(=O)[C@H](CCCNC(=N)N)NC(=O)CNC(=O)[C@@H](N)CSSC[C@@H](C(=O)N[C@@H](Cc2ccccc2)C(=O)O)NC1=O [BT53] (H-CGRYTKSIPPICF-OH; disulfide 1-12; C-terminus assumed)	104.2 ± 0.5	108.9 ± 2.0	106.0 ± 0.4	87.4 ± 4.9	63.0 ± 1.9	0.5 ± 0.2	0.2 ± 0.0		good inhibitory activities against trypsin		IC50: 120 nM; Ki: 30 nM; inhibitory activity against trypsin (in words) (listed as SEQ ID NO: 53): excellent trypsin inhibitory activities; Residual trypsin activity (peptide 0.0585 μM): 84.9 ± 2.2%; Residual trypsin activity (peptide 0.07317 μM): 75.2 ± 2.8%; Residual trypsin activity (peptide 97.56 μM): 0.0 ± 0.1%
CC[C@H](C)[C@@H]1NC(=O)[C@@H]2CCCN2C(=O)[C@@H]2CCCN2C(=O)[C@H]([C@@H](C)CC)NC(=O)[C@H](CO)NC(=O)[C@H](CCCCN)NC(=O)[C@H]([C@@H](C)O)NC(=O)[C@H](CCC(N)=O)NC(=O)[C@H](CCCNC(=N)N)NC(=O)CNC(=O)[C@@H](N)CSSC[C@@H](C(=O)N[C@@H](Cc2ccccc2)C(=O)O)NC1=O [BT54] (H-CGRQTKSIPPICF-OH; disulfide 1-12; C-terminus assumed)	101.0 ± 3.9	99.2 ± 1.7	99.9 ± 4.1	65.8 ± 6.7	7.2 ± 2.4	0.1 ± 0.0	−0.1 ± 0.0	60	good inhibitory activities against trypsin	10	inhibitory activity against trypsin (in words) (listed as SEQ ID NO: 54): excellent trypsin inhibitory activities; Residual trypsin activity (peptide 0.0585 μM): 58.4 ± 4.3%; Residual trypsin activity (peptide 0.0780 μM): 24.3 ± 2.4%
CC[C@H](C)[C@@H]1NC(=O)[C@@H]2CCCN2C(=O)[C@@H]2CCCN2C(=O)[C@H]([C@@H](C)CC)NC(=O)[C@H](CO)NC(=O)[C@H](CCCCN)NC(=O)[C@H]([C@@H](C)O)NC(=O)[C@H](CC(N)=O)NC(=O)[C@H](CCCNC(=N)N)NC(=O)CNC(=O)[C@@H](N)CSSC[C@@H](C(=O)N[C@@H](Cc2ccccc2)C(=O)O)NC1=O [BT55] (H-CGRNTKSIPPICF-OH; disulfide 1-12; C-terminus assumed)									excellent trypsin inhibitory activities	60	
CC[C@H](C)[C@@H]1NC(=O)[C@@H]2CCCN2C(=O)[C@@H]2CCCN2C(=O)[C@H]([C@@H](C)CC)NC(=O)[C@H](CO)NC(=O)[C@H](CCCCN)NC(=O)[C@H]([C@@H](C)O)NC(=O)[C@H](Cc2c[nH]cn2)NC(=O)[C@H](CCCNC(=N)N)NC(=O)CNC(=O)[C@@H](N)CSSC[C@@H](C(=O)N[C@@H](Cc2ccccc2)C(=O)O)NC1=O [BT56] (H-CGRHTKSIPPICF-OH; disulfide 1-12; N-terminus and C-terminus assumed)								110		20	
